Measured values reported in PubChem BioAssay (NCI).
Several values for one entry are separate records, joined by “and”; a condition that tells them apart may be missing. Equal entries are not always repeated.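 Dose response: 5 concentrations. Exposure: 48 h. Format: 96-well plates. Endpoint: linear interpolation; highest concentration if not reached. Here, GI50 denotes the concentration required for 50% inhibition of growth. Definition used: TGI = concentration required for complete inhibition of growth.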

What was measured:
Test in all cases: inhibition of tumour cell growth, NCI panel, 48 h
KM20L2 colon = test system: KM20L2 colon
RXF-631 renal = test system: RXF-631 renal
M19-MEL melanoma = test system: M19-MEL melanoma
MCF7 breast = test system: MCF7 breast
BT-549 breast = test system: BT-549 breast
LXFL 529 NSCLC = test system: LXFL 529 NSCLC
MDA-N = test system: MDA-N
T-47D breast = test system: T-47D breast
XF 498 CNS = test system: XF 498 CNS

Row | Structure (SMILES) | TGI (KM20L2 colon) | TGI (RXF-631 renal) [µM] | TGI (M19-MEL melanoma) [µM] | TGI (LXFL 529 NSCLC) [µM] | TGI (XF 498 CNS) | further results
1 | CCCCCCCCCCCCCC(=O)CBr | 26 µM | 33.7 | 23.5 | 9.13 | – | TGI (MCF7 breast): 30.2 µM; TGI (BT-549 breast): 22.6 µM; TGI (MDA-N): 25 µM; TGI (T-47D breast): 18.7 µM
2 | Cc1cc(=O)oc2cc3c(cc12)Oc1ccccc1O3 | > 100 µM | > 100 | > 100 | > 100 | > 10 µM | –
3 | COc1ccc2oc3cccc(NCCN(C)C)c3c(=O)c2c1 | 22 µM | 32.4 | 29.9 | 26 | 28 µM | –
4 | CC1C(=O)C(C)C(c2ccccc2)N(N=O)C1c1ccccc1 (stereo not drawn) | > 1000 µM | – | > 1000 | > 1000 | 73.8 µM and 214 µM | GI50 (XF 498 CNS): 53.2 µM; GI50 (M19-MEL melanoma): > 1000 µM; TGI (MDA-N): 306 µM; TGI (T-47D breast): 311 µM
5 | O=C(CSC(=S)N1CCOCC1)Nc1nc2c(s1)CCCC2 | > 100 µM | – | > 100 | > 100 | > 100 µM | –
6 | O=C1CC[C@@H](S(=O)(=O)c2ccccc2)[C@@H](/C=C/c2ccccc2)O1 | > 100 µM | – | > 100 | > 100 | – | –
7 | O=c1cc(-c2ccccc2)c2cc3c(=O)ccoc3cc2o1 | > 100 µM | – | > 100 | – | > 100 µM | –
8 | CC(=O)c1cc([N+](=O)[O-])ccc1OCC(=O)O | > 100 µM | > 100 | > 100 | > 100 | – | –
9 | N#C/C(=C\c1cccc(O)c1)C(N)=O | > 100 µM | > 100 | > 100 | > 100 | > 100 µM | –
10 | COc1cccc(C2c3cc4c(cc3OC(O)(CO)C2C(=O)O)OCO4)c1 (stereo not drawn) (tested in a mixture with another compound) | > 100 µM | > 100 | > 100 | > 100 | – | –
11 | CC1S(=O)(=O)OCCOS1(=O)=O | > 100 µM | > 100 | > 100 | > 100 | – | –
12 | N[C@H](C(=O)O)[C@H](Cl)CC(=O)O | > 100 µM | – | > 100 | > 100 | > 100 µM | –
13 | O=C(CN1CCN(c2ccccc2)CC1)N1CCc2c([nH]c3ccccc23)C1c1cccnc1 (stereo not drawn) | > 100 µM | > 94.5 | > 100 | > 100 | 71.8 µM | –
14 | CCOC(=O)NN1C(=O)C(=P(c2ccccc2)(c2ccccc2)c2ccccc2)C(C(=O)OCC)=C1C | > 100 µM | > 100 | > 100 | > 100 | > 100 µM | –
15 | CC(=O)n1c2ccccc2c2nc3nc(Oc4ccc(C)cc4)c4ccccc4c3cc21 | > 100 µM | – | > 100 | > 100 | – | –
16 | O=C(O)c1cc(=O)c2[nH]c3ccccc3c2s1 | > 100 µM | > 100 | > 100 | > 100 | > 100 µM | –
17 | CCCCCCCCCCCCCCCCCCCCCC(=O)Nc1ccn(C2OC(CO)C(O)C2O)c(=O)n1 (stereo not drawn) | > 100 µM | – | > 100 | > 100 | > 100 µM | –
18 | Cc1ccc(NC(=O)/C(=N\Nc2ccc([N+](=O)[O-])cc2[N+](=O)[O-])C2C(=O)NC(=O)NC2=O)cc1 | > 100 µM | > 100 | > 100 | > 100 | – | –

Row | Structure (SMILES) | TGI (KM20L2 colon) | TGI (RXF-631 renal) [µM] | TGI (M19-MEL melanoma) [µM] | TGI (LXFL 529 NSCLC) [µM] | TGI (XF 498 CNS) | further results
19 | CCC12CCCC(=O)N1C(CO)C(c1ccccc1)O2 (stereo not drawn) | > 100 µM | – | > 100 | – | > 100 µM | –
20 | CCCCCCCCCc1cc(=O)c2ccc(O)cc2o1 | > 100 µM | > 100 | > 100 | > 100 | > 100 µM | –
21 | COc1cc([C@@H]2c3cc4c(cc3[C@@H](NC(=O)c3ccccc3)C3COC(=O)[C@@H]32)OCO4)cc(OC)c1O (stereo partly drawn) | 12.8 µM | – | 24.7 | > 100 | – | –
22 | CC1=C(O)C(=O)C2C(=O)C1C(C)C2c1ccc(Cl)cc1 (stereo not drawn) | – | > 100 | > 100 | > 100 | > 100 µM | –
23 | NNC(=O)CCC(=O)NC1C2CC3CC(C2)CC1C3 (stereo not drawn) | > 100 µM | – | > 100 | > 100 | – | –
24 | N#CC(C(=O)C(=O)NCCCNC(=O)C(=O)C(C#N)c1ccccc1)c1ccccc1 (stereo not drawn) | > 100 µM | – | > 100 | > 100 | – | –
25 | COc1ccc(NC(=O)c2cc(OC)c(OC)c(OC)c2)cc1 | > 100 µM | > 100 | > 100 | > 100 | > 100 µM | –
26 | COc1cccc(C(=O)C2C(=O)N(C)CCc3ccccc32)c1OC (stereo not drawn) | > 100 µM | > 100 | > 100 | > 100 | > 100 µM | –
27 | CSc1nc2c(nc(N)n2C2OCC(O)C(O)C2O)c(=O)n1C (stereo not drawn) | > 100 µM | > 100 | > 100 | > 100 | > 100 µM | –
28 | CC(=O)Oc1ccc(O)c(O)c1C/C=C(\C)CC/C=C(\C)CC/C=C(\C)CCC=C(C)C | 3.74 µM | – | 1.81 | 1.05 | 0.818 µM | –
29 | CCOc1ccc(NCc2cc(OC)c(OC)c(OC)c2)cc1 | 1.79 µM and 3.09 µM | – | – | > 100 | > 95.6 µM and 62 µM | GI50 (XF 498 CNS): 9.37 µM and 3 µM; TGI (MCF7 breast): > 100 µM; TGI (BT-549 breast): > 100 µM; GI50 (LXFL 529 NSCLC): 0.839 µM and 2.67 µM; GI50 (MDA-N): 0.565 µM and 0.446 µM; TGI (MDA-N): > 100 µM; GI50 (T-47D breast): 1.66 µM and 4.48 µM; TGI (T-47D breast): > 100 µM
30 | COc1cc(CNc2ccc(C(C)C)cc2)cc(OC)c1OC | 38.8 µM | – | 39 | 48.7 | 59 µM | –
31 | OCCCCCCOc1ccc(-c2cc(-c3ccccn3)nc(-c3ccccn3)c2)cc1 | – | – | 1.25 | 4.97 | 5.32 µM | TGI (BT-549 breast): 9.21 µM; TGI (T-47D breast): 5.74 µM
32 | COc1ccc(O)c(C#N)c1C#N | > 100 µM | – | > 100 | > 100 | > 100 µM | –
33 | CC(C)CC1=[N+]=C(NC#N)N=C(CCC(=O)Nc2ccccc2[N+](=O)[O-])C1 | > 100 µM | – | > 100 | > 100 | > 100 µM | –
34 | O=C1C2=C(c3ccccc31)C(c1ccccc1)NC(=S)N2 (stereo not drawn) | > 100 µM | > 100 | > 100 | > 100 | > 100 µM | –
35 | Cc1cc2c3ccccc3n(C)c2c2c1C(=O)C=CC2=O | – | – | 33.4 | 8.98 | 31.3 µM | TGI (MCF7 breast): 17.5 µM; TGI (BT-549 breast): 46.4 µM; TGI (MDA-N): 25.5 µM; TGI (T-47D breast): 19.4 µM
36 | COc1nc2nccc-2c2occn12 | > 100 µM | > 100 | > 100 | > 100 | > 100 µM | –
